# Peptide text beside a SMILES is read from it.
# Assays:
# Type in all cases: in vivo, human
# Nerve disorders = experiment: Summary of test results in volunteer subjects: nerve disorders; conditions: efficacy grade
# Excerpt: (§1) In one embodiment, a composition for topical application to test its therapeutic effect was formulated by dissolving a bioactive dipeptide derivative of the present invention in a solution prepared from 40 parts water, 40 parts ethanol and 20 parts propylene glycol by volume (WEP442). In another embodiment, a composition was formulated by dissolving a bioactive dipeptide derivative of the present invention in a non-aqueous solution prepared from 80 parts ethanol and 20 parts propylene glycol by volume (EP82). In yet another embodiment, a composition was formulated first by dissolving a bioactive dipeptide derivative of the present invention in a solution prepared from 80 parts water and 20 parts propylene glycol by volume (WP82), and the solution thus prepared was mixed with an oil-in-water emulsion or cream. In another embodiment, the volunteer subject topically applied the test compositions containing N-acyldipeptide derivatives of the present invention on involved skin or lesions once or twice daily for several weeks or until the involved lesions completely cleared and clinically changed to normal skin. As a control study, the subject also topically applied a vehicle control composition on the involved skin or lesions twice daily for the same period. In yet another embodiment, the volunteer subject topically applied once or twice daily the test compositions containing N-acyldipeptide derivatives of the present invention on the skin site above arthritic joints or painful muscles to provide therapeutic effects for the systemic disorders via topical administration. Some test results are summarized as follows. ND: Nerve disorders
# [1] = test system: arthritis of both knees with edema and pain; experiment: Sublingual administration in arthritis of knees; conditions: 1 mg sublingually, kept under the tongue 15 minutes; after a few hours
# Protocol: A subject had severe arthritis of both knees with edema and pain for many years. The conventional therapy had provided only temporary relief of knee pain and edema. The subject took N—Ac-L-Pro-Gly-NH2 (1 mg) sublingually and kept the dipeptide under the tongue for 15 minutes before swallowing.
# Disturbed keratinization = experiment: Summary of test results in volunteer subjects: disturbed keratinization; conditions: efficacy grade
# Excerpt: as §1, with “DK: Disturbed keratinization” for “ND: Nerve disorders”
# [2] = test system: Aging related changes of skin, nail and hair; experiment: Summary of test results in volunteer subjects: aging related changes; conditions: efficacy grade
# Excerpt: as §1, with “AG: Aging related changes of skin, nail and hair” for “ND: Nerve disorders”
# [3] = test system: Deranged immune disorders and inflammation; experiment: Summary of test results in volunteer subjects: deranged immune disorders and inflammation; conditions: efficacy grade
# Excerpt: In one embodiment, a composition for topical application to test its therapeutic effect was formulated by dissolving a bioactive dipeptide derivative of the present invention in a solution prepared from 40 parts water, 40 parts ethanol and 20 parts propylene glycol by volume (WEP442). In another embodiment, a composition was formulated by dissolving a bioactive dipeptide derivative of the present invention in a non-aqueous solution prepared from 80 parts ethanol and 20 parts propylene glycol by volume (EP82). In yet another embodiment, a composition was formulated first by dissolving a bioactive dipeptide derivative of the present invention in a solution prepared from 80 parts water and 20 parts propylene glycol by volume (WP82), and the solution thus prepared was mixed with an oil-in-water emulsion or cream. In another embodiment, the volunteer subject topically applied the test compositions containing N-acyldipeptide derivatives of the present invention on involved skin or lesions once or twice daily for several weeks or until the involved lesions completely cleared and clinically changed to normal skin. As a control study, the subject also topically applied a vehicle control composition on the involved skin or lesions twice daily for the same period. In yet another embodiment, the volunteer subject topically applied once or twice daily the test compositions containing N-acyldipeptide derivatives of the present invention on the skin site above arthritic joints or painful muscles to provide therapeutic effects for the systemic disorders via topical administration. Some test results are summarized as follows. DI: Deranged immune disorders and inflammation
# [4] = test system: age spots including lentigines and keratosis; experiment: Topical treatment of age spots on face; conditions: twice daily, after 4 weeks; 1% (w/v) N-Ac-L-Cys-L-Tyr-NH2 in WEP442 pH 6.4 left side, 0.4% (w/v) N-Ac-L-Cys-L-Cys-NH2 in WEP442 right side
# Excerpt: A subject had multiple age spots including lentigines and keratosis on their face. Topical treatments with conventional medications including hydroquinone with or without glycolic acid had been unsuccessful. The subject topically applied twice daily to the left side of their face 1% (w/v) N—Ac-L-Cys-L-Tyr-NH2 in WEP442, pH 6.4 (Example 5), and to the right side of their face 0.4% (w/v) N—Ac-L-Cys-L-Cys-NH2 in WEP442 (Example 5) for several months. […] Continued topical applications of the formulations should improve or eradicate lentigines and keratosis of the face.
# [5] = test system: inflammation, dermatitis, or eczema lesions; experiment: Topical application to chronic inflammation, dermatitis, eczema or allergic skin lesions, clinical evaluation
# Excerpt: (§2) In another embodiment, the volunteer subject topically applied the test compositions containing N-acyldipeptide derivatives of the present invention on involved skin or lesions once or twice daily for several weeks or until the involved lesions completely cleared and clinically changed to normal skin. As a control study, the subject also topically applied a vehicle control composition on the involved skin or lesions twice daily for the same period.
# forearm skin = experiment: Skin thickness of forearm by micrometer calipers after topical application; conditions: for increase in skin thickness of treated left forearm: 1% (w/v) in WEP442 topically twice daily, vehicle forearm no change
# Protocol: In one of the studies related to skin changes associated with aging, skin thickness was measured by micrometer calipers as follows. The skin was grasped with a 2×6 cm metal hinge; the internal faces of which were coated with emery cloth to prevent slippage, and manually squeezed to threshold subject discomfort. Combined thickness of two whole-skin layers including thickness of the two hinge leaves was measured with micrometer calipers. Thickness of the two hinge leaves was subtracted to determine the actual thickness of two whole-skin layers. Triplicate measurements on treated sites were done and an average number was used for calculation of the skin thickness. In other studies, test sites of skin 17 mm in diameter were used, the circular sites were marked with permanent ink. Intervening control sites were also 17 mm in diameter. Thickness of skin of all sites was measured directly by means of an electronic digital caliper. In this instance the jaws of the caliper were opened to 17 mm, applied with pressure to the skin sites and then closed to firm tightness. Thickness of skin was then read off the screen of the calipers. Measurements of all sites were made in triplicates.
# [6] = Systemic administration under the tongue, tolerability; conditions: 1 mg powder under the tongue, twice daily for three days, person
# Protocol: The subject took 1 mg N—Ac-L-Tyr-L-Tyr-OH powder under the tongue until it was dissolved completely. The same dose was taken twice daily for the next three days. […] Such systemic administration of the bioactive dipeptide derivative of the present invention is believed to have the potential of treating diseases, symptoms or syndromes associated with immune, tumors, cancers, nervous, vascular, musculoskeletal, cutaneous system, or other tissues and systems.
# insect bites = experiment: Topical application to insect bite lesions (itch, erythema, inflammation); conditions: 10% (w/w) cream on insect bites of left arm
# Protocol: A subject, having intensive itch and erythema on their left arm from insect bites, topically applied 10% (w/w) N—Ac-L-Leu-Gly-NH2 cream as formulated in Example 3 on the involved lesions.
# A subject had multiple lesions of insect bites (mosquitoes) over the face and arms with itch and inflammatory lesions of more than 1 cm in size. For testing purposes, the subject divided the lesions into three groups: the first group was treated with vehicle control, the second and third groups were treated with active compositions. The subject topically applied twice daily 0.5% (w/v) N—Ac-L-Val-L-Ala-NH2 solution in WEP442, pH 5.9 on the lesions of the second group, and 0.5% (w/v) N—Ac-L-Tyr-L-Tyr-NH2 solution in WEP442, pH 6.7 (Example 5) on the lesions of the third group. […] The lesions in the second and third groups also started to improve over the next few days. At the end of three days, while there was no discernible change in the lesions treated with vehicle control in the first group, the lesions in the second and third groups had 90-100% improvement with nearly complete disappearance of inflammatory lesions.
# A subject had multiple lesions of chigger bites (grass mites) over the legs with intensive itch and red inflammatory lesions. The subject topically applied twice daily 0.5% (w/v) N—Ac-L-Val-L-Ala-NH2 solution in WEP442, pH 6.7 (Example 5) on the lesions. […] The lesions on the legs had 100% improvement as judged by clinical evaluation.
# as §2
Structure (SMILES),ND (Nerve disorders),DK (Disturbed keratinization),AG [2],DI [3],age spot lesions of face [4],other results
CC(=O)N1CCC[C@H]1C(=O)NCC(N)=O [N-Ac-L-Pro-Gly-NH2] (Ac-Pro-Gly-NH2),4+ (4+: 95-100% Efficacy),2+ (2+: 50% Efficacy),2+ (2+: 50% Efficacy),3+ (3+: 75% Efficacy),,edema and pain of arthritic knees [1]: diminished substantially
CC(=O)N[C@@H](CS)C(=O)N[C@@H](Cc1ccc(O)cc1)C(N)=O [N-Ac-L-Cys-L-Tyr-NH2] (Ac-Cys-Tyr-NH2),3+ (3+: 75% Efficacy),2+ (2+: 50% Efficacy),2+ (2+: 50% Efficacy),2+ (2+: 50% Efficacy),started to improve noticeably,
CC(=O)N[C@@H](Cc1ccc(O)cc1)C(=O)N[C@@H](Cc1ccc(O)cc1)C(=O)O [N-Ac-L-Tyr-L-Tyr-OH] (Ac-Tyr-Tyr-OH),4+ (4+: 95-100% Efficacy),3+ (3+: 75% Efficacy),4+ (4+: 95-100% Efficacy),3+ (3+: 75% Efficacy),,"itch after topical application ([5]; 0.4% (w/v) in WEP442 pH 3.7 twice daily, inflammatory dermatitis on both arms): stopped within a few minutes; improvement as judged by clinical evaluation ([5]; 0.4% (w/v) in WEP442 pH 3.7 twice daily, inflammatory dermatitis on both arms, end of one week): 95%; increase in skin thickness of treated left forearm (forearm skin; after 2 weeks): 16%; increase in skin thickness of treated left forearm (forearm skin; after 4 weeks): 17%; increase in skin thickness of treated left forearm (forearm skin; after one week): 16%; appearance of treated left forearm at end of treatment (forearm skin; 1-3% (w/v) in WEP442 topically twice daily for 1-6 weeks as in the example, vehicle forearm still loose, thin and wrinkled): more firm, smooth, plump, and less wrinkled when lifted; irritation or side reactions [6]: did not provoke any irritation or side reactions"
CC(=O)N[C@@H](CC(C)C)C(=O)NCC(N)=O [N-Ac-L-Leu-Gly-NH2] (Ac-Leu-Gly-NH2),4+ (4+: 95-100% Efficacy),3+ (3+: 75% Efficacy),3+ (3+: 75% Efficacy),4+ (4+: 95-100% Efficacy),,"improvement as judged by clinical evaluation ([5]; 6% (w/w) oil-in-water emulsion twice daily, chronic eczema large body areas, end of 10 days): 95%; itch after topical application ([5]; 6% (w/w) oil-in-water emulsion twice daily, chronic eczema large body areas, person): stopped within a few minutes; improvement as judged by clinical evaluation ([5]; 7% (w/w) oil-in-water emulsion twice daily, chronic eczema, end of 10 days): 90-100%; itch after topical application ([5]; 7% (w/w) oil-in-water emulsion twice daily, chronic eczema, person): stopped within a few minutes; improvement as judged by clinical evaluation ([5]; 10% (w/w) cream twice daily, chronic eczema right leg, end of one week): 50%; itch after topical application ([5]; 10% (w/w) cream twice daily, chronic eczema right leg, person): stopped within a few minutes; itch after topical application (insect bites): stopped within a few minutes; time the pruritus did not return (insect bites): 6 h; erythema and inflammation (insect bites; after 12 hours): improved"
CC(=O)N[C@@H](CS)C(=O)N[C@@H](CS)C(N)=O [N-Ac-L-Cys-L-Cys-NH2] (Ac-Cys-Cys-NH2),2+ (2+: 50% Efficacy),2+ (2+: 50% Efficacy),3+ (3+: 75% Efficacy),2+ (2+: 50% Efficacy),started to improve noticeably,
